# Test results as given in US20150290333A1, “PROCESS AND MATERIALS FOR MEDICAL APPLICATIONS” (NATIONAL UNIVERSITY OF SINGAPORE, priority 2012, published 2015).
# Tested on: human mesenchymal stem cells
# Assay: Pinocytosis inhibition studies
# Format: cell-based
# Conditions: PVP, Fc70, Fc400
# Method: Cells were viewed with a FV300 laser scanning confocal microscope (Olympus, Japan). The excitation beam from a 543-nm HeNe ion laser (MellesGriot, Singapore) was focused by a water immersion objective (60×, NA1.2, Olympus) into the fluorescent sample. For organelle co-localization studies, an additional 488-nm Ar laser (MellesGriot, Singapore) was used to excite fluorescent organelle labels. Images were acquired with the Olympus FV300 software.
# hMSCs (Lonza) were pre-incubated for 1 hour with 10 mM methyl beta cyclodextrin (MBCD, Sigma-Aldrich), 28 μM chlorpromazine (CPZ, Sigma-Aldrich), 300 μM amiloride (Am, Sigma-Aldrich), and 10 μM monensin (Mon, Sigma-Aldrich) in serum-free LGDMEM. The cells were then incubated for a further 1 hour with a mixture of each inhibitor and each TRITC-labelled polymer in serum-free LGDMEM.
compound,measurement,setting,value
"N=C(N)NC(=O)c1nc(Cl)c(N)nc1N [Am, amiloride]",Effect of pinocytosis inhibitor on uptake of TRITC-labelled polymers,300 μM inhibitor,no significant effects
"CN(C)CCCN1c2ccccc2Sc2ccc(Cl)cc21 [CPZ, chlorpromazine]",Effect of pinocytosis inhibitor on uptake of TRITC-labelled polymers,28 μM inhibitor,"reduced polymer presence across the board, but trapped Fc in the worm-like compartments"
"CC[C@@]1([C@@H]2O[C@@H]([C@H]3O[C@@](O)(CO)[C@H](C)C[C@@H]3C)C[C@@H]2C)CC[C@H]([C@]2(C)CC[C@]3(C[C@H](O)[C@@H](C)[C@@H]([C@@H](C)[C@@H](OC)[C@H](C)C(=O)O)O3)O2)O1 [Monensin, monensin]",Effect of pinocytosis inhibitor on uptake of TRITC-labelled polymers,10 μM inhibitor,did not inhibit uptake of polymers but arrested them in a seam of vesicles at the periphery of the cells
methyl-beta-cyclodextrin [MβCD],Effect of pinocytosis inhibitor on uptake of TRITC-labelled polymers,10 mM inhibitor,completely inhibited uptake of all polymers
